Literature values as cited in article PMC4123439 (Bioorganic & medicinal chemistry, 2009).

Tested on: Tdp1
Details: at concentrations of up to 1 mM

Question: With `COS(=O)(=O)c1ccc(C)cc1` [methyl p-toluene sulfonate] as the compound, how does the Tdp1 inhibitory activity read?
Answer: The Tdp1 inhibitory activity was “inactive”.
